Test results from ChEMBL document CHEMBL5506027, “Discovery of a Novel and Potent Cyclin-Dependent Kinase 8/19 (CDK8/19) Inhibitor for the Treatment of Cancer” (J Med Chem, 2024).

Tests used:
[1] = molecular target: Serine/threonine-protein kinase pim-2 (Homo sapiens, UniProt Q9P1W9); test: Inhibition of PIM2 (unknown origin) by ADP-Glo assay
Cytochrome P450 1A2 [2] = molecular target: T1, Cytochrome P450 1A2 (Homo sapiens, UniProt P05177); test: Inhibition of CYP1A2 (unknown origin) preincubated for 30 mins in presence of NADPH; format: ADME
T1 sequence (P05177 whole entry): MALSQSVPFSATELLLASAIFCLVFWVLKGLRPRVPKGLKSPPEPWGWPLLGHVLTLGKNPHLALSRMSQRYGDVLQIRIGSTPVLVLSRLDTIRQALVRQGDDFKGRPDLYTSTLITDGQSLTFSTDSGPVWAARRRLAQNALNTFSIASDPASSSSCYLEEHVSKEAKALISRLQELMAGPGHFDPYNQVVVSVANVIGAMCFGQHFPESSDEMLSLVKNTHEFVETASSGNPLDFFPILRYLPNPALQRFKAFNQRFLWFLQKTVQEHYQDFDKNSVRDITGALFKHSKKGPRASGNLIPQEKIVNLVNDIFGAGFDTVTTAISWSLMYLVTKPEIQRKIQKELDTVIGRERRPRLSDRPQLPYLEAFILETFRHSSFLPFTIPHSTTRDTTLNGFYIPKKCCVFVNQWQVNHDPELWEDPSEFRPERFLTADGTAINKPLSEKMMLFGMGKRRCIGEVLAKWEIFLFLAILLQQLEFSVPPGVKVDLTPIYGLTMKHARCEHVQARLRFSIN

[3] = molecular target: T2, Cyclin-dependent kinase 19 (Homo sapiens, UniProt Q9BWU1); test: Inhibition of CDK19 (unknown origin) by ADP-Glo assay
T2 sequence (Q9BWU1 whole entry): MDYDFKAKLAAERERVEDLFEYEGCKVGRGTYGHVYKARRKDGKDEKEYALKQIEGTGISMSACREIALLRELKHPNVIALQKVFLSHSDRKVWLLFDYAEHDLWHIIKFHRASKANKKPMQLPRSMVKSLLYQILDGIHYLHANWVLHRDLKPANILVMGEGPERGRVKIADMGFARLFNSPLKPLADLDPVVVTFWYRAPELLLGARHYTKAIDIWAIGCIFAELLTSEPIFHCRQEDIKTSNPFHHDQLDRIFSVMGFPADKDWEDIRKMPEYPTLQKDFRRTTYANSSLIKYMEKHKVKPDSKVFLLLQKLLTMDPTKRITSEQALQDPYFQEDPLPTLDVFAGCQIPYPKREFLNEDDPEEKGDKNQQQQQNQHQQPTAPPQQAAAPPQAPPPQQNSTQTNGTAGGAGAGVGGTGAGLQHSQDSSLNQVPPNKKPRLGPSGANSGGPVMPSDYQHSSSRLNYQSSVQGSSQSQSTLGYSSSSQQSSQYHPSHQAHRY

CDK2/Cyclin A2 = CDK2/Cyclin A2 (Homo sapiens, UniProt P24941); test: Inhibition of CDK2/cyclinA2 (unknown origin) by ADP-Glo chemiluminescence assay; format: protein-complex assay
[4] = molecular target: Voltage-gated inwardly rectifying potassium channel KCNH2 (Homo sapiens, UniProt Q12809); test: Inhibition of human ERG; format: toxicity
Voltage-gated inwardly rectifying potassium channel KCNH2, sequence (Q12809 whole entry): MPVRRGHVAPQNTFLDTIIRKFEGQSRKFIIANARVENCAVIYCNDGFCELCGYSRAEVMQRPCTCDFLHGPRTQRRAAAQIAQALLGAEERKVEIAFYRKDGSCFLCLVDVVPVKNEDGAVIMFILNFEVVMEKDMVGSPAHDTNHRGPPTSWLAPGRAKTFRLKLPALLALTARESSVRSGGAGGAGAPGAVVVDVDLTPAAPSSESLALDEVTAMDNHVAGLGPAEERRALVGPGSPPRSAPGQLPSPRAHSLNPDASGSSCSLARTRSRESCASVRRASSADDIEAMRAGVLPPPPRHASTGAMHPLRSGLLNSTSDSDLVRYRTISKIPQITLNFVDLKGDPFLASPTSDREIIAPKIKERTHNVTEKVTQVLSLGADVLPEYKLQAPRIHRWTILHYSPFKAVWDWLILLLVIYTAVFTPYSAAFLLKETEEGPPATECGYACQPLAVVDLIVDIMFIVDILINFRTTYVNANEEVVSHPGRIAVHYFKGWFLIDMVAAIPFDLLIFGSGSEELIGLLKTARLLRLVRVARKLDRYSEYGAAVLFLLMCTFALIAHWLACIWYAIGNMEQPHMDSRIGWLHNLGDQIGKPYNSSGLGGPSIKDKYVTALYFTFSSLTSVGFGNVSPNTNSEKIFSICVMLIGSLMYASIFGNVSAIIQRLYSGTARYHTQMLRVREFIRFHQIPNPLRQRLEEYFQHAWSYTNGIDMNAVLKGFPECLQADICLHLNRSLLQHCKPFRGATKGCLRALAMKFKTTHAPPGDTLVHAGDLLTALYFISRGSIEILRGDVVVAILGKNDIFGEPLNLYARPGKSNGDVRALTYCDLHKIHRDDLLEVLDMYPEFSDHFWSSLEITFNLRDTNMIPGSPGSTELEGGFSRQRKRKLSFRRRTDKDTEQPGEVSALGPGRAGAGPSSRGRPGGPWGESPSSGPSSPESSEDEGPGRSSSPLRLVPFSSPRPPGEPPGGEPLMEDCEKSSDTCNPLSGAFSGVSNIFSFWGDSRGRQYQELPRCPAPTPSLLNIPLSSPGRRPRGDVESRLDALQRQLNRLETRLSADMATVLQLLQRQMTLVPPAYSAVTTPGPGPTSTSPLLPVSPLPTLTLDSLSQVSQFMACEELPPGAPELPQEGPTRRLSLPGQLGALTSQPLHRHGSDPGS

[5] = molecular target: T3, Cyclin-dependent kinase 5/CDK5 activator 1 (Homo sapiens, UniProt Q00535); test: Inhibition of CDK5/p35NCK (unknown origin) by ADP-Glo chemiluminescence assay; format: protein-complex assay
T3 sequence (Q00535 whole entry): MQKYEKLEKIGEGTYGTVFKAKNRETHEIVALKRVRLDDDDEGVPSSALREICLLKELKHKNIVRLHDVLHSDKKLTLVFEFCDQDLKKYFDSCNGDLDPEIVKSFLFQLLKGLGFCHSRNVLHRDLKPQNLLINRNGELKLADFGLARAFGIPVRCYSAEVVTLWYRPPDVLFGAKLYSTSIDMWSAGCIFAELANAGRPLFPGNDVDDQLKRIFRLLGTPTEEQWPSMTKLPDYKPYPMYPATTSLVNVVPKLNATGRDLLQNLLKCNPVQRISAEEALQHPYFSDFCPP
T3 sequence (Q15078 whole entry, further chain): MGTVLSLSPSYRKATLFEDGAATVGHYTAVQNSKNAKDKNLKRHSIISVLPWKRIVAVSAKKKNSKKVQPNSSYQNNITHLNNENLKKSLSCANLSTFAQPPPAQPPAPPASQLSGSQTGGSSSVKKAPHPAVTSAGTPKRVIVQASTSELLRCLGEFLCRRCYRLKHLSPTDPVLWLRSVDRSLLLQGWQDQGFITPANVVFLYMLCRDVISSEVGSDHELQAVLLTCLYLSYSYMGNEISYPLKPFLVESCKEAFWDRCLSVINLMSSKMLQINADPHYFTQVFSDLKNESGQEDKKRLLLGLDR

CDK7/Cyclin H/MNAT1 = CDK7/Cyclin H/MNAT1 (Homo sapiens, UniProt P50613); test: Inhibition of CDK7/cyclinH/MAT1 (unknown origin) by ADP-Glo chemiluminescence assay; format: protein-complex assay
[6] = molecular target: Casein kinase II subunit alpha' (Homo sapiens, UniProt P19784); test: Inhibition of CSNK2A2 (unknown origin) by ADP-Glo assay
[7] = Half-life in mouse at 1 mg/kg, iv measured upto 24 hrs by LC-MS/MS anlaysis; format: ADME, organism-based; settings: in vivo
[8] = Half-life in rat at 1 mg/kg, iv measured upto 24 hrs by LC-MS/MS anlaysis; format: ADME, organism-based; settings: in vivo
[9] = Half-life in dog at 1 mg/kg, iv measured upto 24 hrs by LC-MS/MS anlaysis; format: ADME, organism-based, Canis lupus familiaris; settings: in vivo
[10] = molecular target: Serine/threonine-protein kinase TAO1 (Homo sapiens, UniProt Q7L7X3); test: Inhibition of TAOK1 (unknown origin) by ADP-Glo assay
Serine/threonine-protein kinase TAO1, sequence (Q7L7X3 whole entry): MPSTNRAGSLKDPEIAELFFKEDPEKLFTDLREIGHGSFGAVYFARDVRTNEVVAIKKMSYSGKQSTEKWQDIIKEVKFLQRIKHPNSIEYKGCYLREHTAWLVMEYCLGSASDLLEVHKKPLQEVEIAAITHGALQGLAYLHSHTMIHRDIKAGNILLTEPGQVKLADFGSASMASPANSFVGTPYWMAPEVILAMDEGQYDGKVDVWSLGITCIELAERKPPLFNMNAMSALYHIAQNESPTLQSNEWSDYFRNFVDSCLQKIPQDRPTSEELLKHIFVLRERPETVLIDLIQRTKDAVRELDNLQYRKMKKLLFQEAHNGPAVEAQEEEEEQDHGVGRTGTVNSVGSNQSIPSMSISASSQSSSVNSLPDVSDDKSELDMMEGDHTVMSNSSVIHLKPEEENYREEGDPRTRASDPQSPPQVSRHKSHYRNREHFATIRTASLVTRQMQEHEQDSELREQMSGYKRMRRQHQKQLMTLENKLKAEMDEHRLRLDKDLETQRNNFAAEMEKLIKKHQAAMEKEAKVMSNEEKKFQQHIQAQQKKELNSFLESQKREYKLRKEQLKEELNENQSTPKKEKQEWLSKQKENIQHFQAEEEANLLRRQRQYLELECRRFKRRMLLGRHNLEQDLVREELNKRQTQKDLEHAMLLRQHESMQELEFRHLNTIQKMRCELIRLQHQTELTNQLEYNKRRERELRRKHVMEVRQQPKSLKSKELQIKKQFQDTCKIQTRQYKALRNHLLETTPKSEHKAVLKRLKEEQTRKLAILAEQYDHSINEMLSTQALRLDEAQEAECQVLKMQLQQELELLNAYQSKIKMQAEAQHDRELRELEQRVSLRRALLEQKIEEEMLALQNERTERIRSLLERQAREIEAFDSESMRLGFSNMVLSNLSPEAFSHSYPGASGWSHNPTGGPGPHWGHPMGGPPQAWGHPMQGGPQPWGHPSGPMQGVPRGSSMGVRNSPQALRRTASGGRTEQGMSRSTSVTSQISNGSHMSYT

[11] = molecular target: Rho-associated protein kinase 1 (Homo sapiens, UniProt Q13464); test: Inhibition of ROCK1 (unknown origin) by ADP-Glo assay
[12] = molecular target: Casein kinase I isoform alpha (Homo sapiens, UniProt P48729); test: Inhibition of CSNK1A1 (unknown origin) by ADP-Glo assay
Casein kinase I isoform alpha, sequence (P48729 whole entry, canonical isoform): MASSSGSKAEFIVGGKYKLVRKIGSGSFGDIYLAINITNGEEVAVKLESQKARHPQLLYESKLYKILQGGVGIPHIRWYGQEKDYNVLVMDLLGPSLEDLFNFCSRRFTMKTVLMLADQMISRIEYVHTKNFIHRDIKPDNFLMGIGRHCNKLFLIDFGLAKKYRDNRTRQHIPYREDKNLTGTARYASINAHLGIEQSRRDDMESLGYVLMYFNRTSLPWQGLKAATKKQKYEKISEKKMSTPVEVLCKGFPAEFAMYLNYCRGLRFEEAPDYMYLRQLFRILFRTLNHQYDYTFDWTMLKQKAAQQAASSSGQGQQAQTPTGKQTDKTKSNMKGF

[13] = molecular target: Cyclin-dependent kinase 8 (Homo sapiens, UniProt P49336); test: Inhibition of CDK8 (unknown origin) by HTRF assay
[14] = Clearance in rat at 1 mg/kg, iv measured upto 24 hrs by LC-MS/MS anlaysis; format: ADME, organism-based; settings: in vivo
[15] = molecular target: T3, Cyclin-dependent kinase 5/CDK5 activator 1; test: Inhibition of CDK5/p25NCK (unknown origin) by ADP-Glo chemiluminescence assay; format: protein-complex assay
[16] = molecular target: Serine/threonine-protein kinase haspin (Homo sapiens, UniProt Q8TF76); test: Inhibition of HASPIN (unknown origin) by ADP-Glo assay
[17] = Toxicity in BALB/c nude mouse assessed as changes in body weight at 3 to 10 mg/kg, po qd measured twice a week for 3 weeks; format: organism-based; settings: in vivo, 504 h, dose 3-10 mg/kg
[18] = Inhibition of CDK1/cyclinA2 (unknown origin) by ADP-Glo chemiluminescence assay; parameters: species or system Homo sapiens
MV4-11 = test: Antiproliferative activity against human MV4-11 cells incubated for 5 days by CellTiter-Glo luminescent cell viability assay; format: functional, cell-based; settings: MV4-11, 120 h
CDK8/Cyclin C = CDK8/Cyclin C (Homo sapiens, UniProt P49336); test: Inhibition of CDK8/CyclinC (unknown origin) by ADP-Glo chemiluminescence assay; format: protein-complex assay
[19] = Volume of distribution at steady state in rat at 1 mg/kg, iv measured upto 24 hrs by LC-MS/MS anlaysis; format: ADME, organism-based; settings: in vivo, read-out: Vdss
[20] = molecular target: Dual specificity protein kinase CLK2 (Homo sapiens, UniProt P49760); test: Inhibition of CLK2 (unknown origin) by ADP-Glo assay
Cytochrome P450 1A2 [21] = molecular target: T1, Cytochrome P450 1A2; test: Inhibition of CYP1A2 (unknown origin) in absence of NADPH; format: ADME
[22] = molecular target: Dual specificity protein kinase CLK4 (Homo sapiens, UniProt Q9HAZ1); test: Inhibition of CLK4 (unknown origin) by ADP-Glo assay
[23] = molecular target: Cyclin-dependent kinase 2/cyclin E1 (Homo sapiens, UniProt P24941); test: Inhibition of CDK2/cyclinE1 (unknown origin) by ADP-Glo chemiluminescence assay; format: protein-complex assay
[24] = Clearance in mouse at 1 mg/kg, iv measured upto 24 hrs by LC-MS/MS anlaysis; format: ADME, organism-based; settings: in vivo
[25] = molecular target: Homeodomain-interacting protein kinase 3 (Homo sapiens, UniProt Q9H422); test: Inhibition of HIPK3 (unknown origin) by ADP-Glo assay
Homeodomain-interacting protein kinase 3, sequence (Q9H422 whole entry): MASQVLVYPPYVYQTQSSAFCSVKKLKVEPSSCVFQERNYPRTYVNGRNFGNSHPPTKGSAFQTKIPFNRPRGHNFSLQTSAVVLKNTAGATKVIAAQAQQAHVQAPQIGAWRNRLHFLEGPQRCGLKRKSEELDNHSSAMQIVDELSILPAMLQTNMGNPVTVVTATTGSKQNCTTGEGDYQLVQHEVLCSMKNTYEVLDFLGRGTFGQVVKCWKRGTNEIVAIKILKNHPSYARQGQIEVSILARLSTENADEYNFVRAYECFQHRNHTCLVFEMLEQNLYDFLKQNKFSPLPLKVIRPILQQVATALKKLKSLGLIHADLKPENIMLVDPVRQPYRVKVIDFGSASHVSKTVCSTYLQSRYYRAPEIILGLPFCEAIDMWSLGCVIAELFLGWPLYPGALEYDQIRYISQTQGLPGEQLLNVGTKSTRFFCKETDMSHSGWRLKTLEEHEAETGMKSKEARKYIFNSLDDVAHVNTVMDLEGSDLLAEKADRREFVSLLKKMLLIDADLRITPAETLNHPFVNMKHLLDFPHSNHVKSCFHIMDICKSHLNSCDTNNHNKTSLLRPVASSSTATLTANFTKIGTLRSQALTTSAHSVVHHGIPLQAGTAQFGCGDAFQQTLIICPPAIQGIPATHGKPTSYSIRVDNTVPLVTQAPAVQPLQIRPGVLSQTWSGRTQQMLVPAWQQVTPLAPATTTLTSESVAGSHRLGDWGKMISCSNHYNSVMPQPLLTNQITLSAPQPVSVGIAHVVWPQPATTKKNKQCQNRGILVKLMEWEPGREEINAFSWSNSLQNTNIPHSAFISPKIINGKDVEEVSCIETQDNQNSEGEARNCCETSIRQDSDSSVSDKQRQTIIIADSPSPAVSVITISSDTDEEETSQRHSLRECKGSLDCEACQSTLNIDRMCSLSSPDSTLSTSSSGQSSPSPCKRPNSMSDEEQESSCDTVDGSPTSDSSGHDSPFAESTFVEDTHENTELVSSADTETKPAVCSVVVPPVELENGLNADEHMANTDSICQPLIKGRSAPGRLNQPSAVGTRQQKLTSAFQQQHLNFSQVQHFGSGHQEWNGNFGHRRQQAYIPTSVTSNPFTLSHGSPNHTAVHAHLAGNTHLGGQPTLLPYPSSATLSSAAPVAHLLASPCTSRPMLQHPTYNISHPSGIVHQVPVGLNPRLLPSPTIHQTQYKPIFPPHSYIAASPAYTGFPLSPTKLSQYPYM

[26] = molecular target: T2, Cyclin-dependent kinase 19; test: Inhibition of CDK19 (unknown origin) by HTRF assay
[27] = Volume of distribution at steady state in dog at 1 mg/kg, iv measured upto 24 hrs by LC-MS/MS anlaysis; format: ADME, organism-based, Canis lupus familiaris; settings: in vivo, read-out: Vdss
[28] = molecular target: Dual specificity tyrosine-phosphorylation-regulated kinase 1A (Homo sapiens, UniProt Q13627); test: Inhibition of DYRK1A (unknown origin) by ADP-Glo assay
[29] = molecular target: CDK7/Cyclin H/MNAT1 (Homo sapiens) (UniProt P51946+P50613+P51948); test: Inhibition of CDK7/cyclinH/MAT1 (unknown origin) at 1 uM by luminescence based assay relative to control; format: protein-complex assay
[30] = molecular target: Dual specificity protein kinase CLK1 (Homo sapiens, UniProt P49759); test: Inhibition of CLK1 (unknown origin) by ADP-Glo assay
[31] = Volume of distribution at steady state in mouse at 1 mg/kg, iv measured upto 24 hrs by LC-MS/MS anlaysis; format: ADME, organism-based; settings: in vivo, read-out: Vdss
[32] = molecular target: Mitogen-activated protein kinase 15 (Homo sapiens, UniProt Q8TD08); test: Inhibition of ERK8 (unknown origin) by ADP-Glo assay
[33] = Clearance in dog at 1 mg/kg, iv measured upto 24 hrs by LC-MS/MS anlaysis; format: ADME, organism-based, Canis lupus familiaris; settings: in vivo

FC(F)c1c(Br)c(Br)cc2c1nc(N1CCNCC1)n2C1CCOCC1
IC50 [1]: 0.124 µM | IC50 (Cytochrome P450 1A2 [2]): 4.58 µM | IC50 [3]: 0.0251 µM | IC50 (CDK2/Cyclin A2): 0.0426 µM | IC50 [4]: 5.8 µM | IC50 [5]: 0.194 µM | IC50 (CDK7/Cyclin H/MNAT1): 0.197 µM | IC50 [6]: 0.0649 µM | half-life [7]: 5.04 h | half-life [8]: 2.53 h | half-life [9]: 4.75 h | IC50 [10]: 6.68 µM | IC50 [11]: 0.353 µM | IC50 [12]: 0.132 µM | IC50 [13]: 0.00208 µM | clearance [14]: 70 mL/min/kg | IC50 [15]: 0.0874 µM | IC50 [16]: 0.0136 µM | Activity [17]: Non-Toxic | IC50 [18]: 0.236 µM | IC50 (MV4-11): 0.0057 µM | IC50 (CDK8/Cyclin C): 0.0075 µM | Vd [19]: 13.3 L/kg | IC50 [20]: 0.0143 µM | IC50 (Cytochrome P450 1A2 [21]): 8.58 µM | IC50 [22]: 0.0029 µM | IC50 [23]: 0.0314 µM | clearance [24]: 14 mL/min/kg | IC50 [25]: 0.503 µM | IC50 [26]: 0.00249 µM | Vd [27]: 4.31 L/kg | IC50 [28]: 0.158 µM | inhibition [29]: 74.4% | IC50 [30]: 0.0082 µM | Vd [31]: 5.96 L/kg | IC50 [32]: 0.0597 µM | clearance [33]: 12 mL/min/kg

Cc1c(Br)c(Br)c2c3c1nc(N1CCNCC1)n3CCC2 [SEL-120 FREE BASE]
IC50 [1]: 0.298 µM | IC50 (Cytochrome P450 1A2 [2]): 0.04 µM | IC50 [3]: 0.0251 µM | IC50 (CDK2/Cyclin A2): 0.0047 µM | IC50 [4]: 0.7 µM | IC50 [5]: 0.00134 µM | IC50 (CDK7/Cyclin H/MNAT1): 0.051 µM | IC50 [6]: 0.279 µM | half-life [7]: 3.01 h | half-life [8]: 1.77 h | half-life [9]: 2.7 h | IC50 [10]: > 10 µM | IC50 [11]: 0.717 µM | IC50 [12]: 1.39 µM | IC50 [13]: 0.0145 µM | clearance [14]: 246 mL/min/kg | IC50 [15]: 0.00166 µM | IC50 [16]: 0.046 µM | IC50 [18]: 0.0205 µM | IC50 (MV4-11): 0.0438 µM | IC50 (CDK8/Cyclin C): 0.0175 µM | Vd [19]: 32.3 L/kg | IC50 [20]: 0.021 µM | IC50 (Cytochrome P450 1A2 [21]): 0.16 µM | IC50 [22]: 0.0027 µM | IC50 [23]: 0.000968 µM | clearance [24]: 81 mL/min/kg | IC50 [25]: 0.132 µM | IC50 [26]: 0.0191 µM | Vd [27]: 6.23 L/kg | IC50 [28]: 0.332 µM | IC50 [30]: 0.0053 µM | Vd [31]: 19.2 L/kg | IC50 [32]: 1.34 µM | clearance [33]: 30 mL/min/kg
